Reference: ChEMBL document CHEMBL1132866, “Synthesis of glycolipid analogues that disrupt binding of HIV-1 gp120 to galactosylceramide” (Bioorg Med Chem Lett, 2000)
pKd: −log10 of the molar value.

Biological target: Envelope glycoprotein gp160 (Human immunodeficiency virus type 1 group M subtype B (isolate HXB2)(HIV-1), UniProt P04578)
Test: Binding affinity towards HIV glycoprotein gp120

## CCCCCCCCCCCCC/C=C/[C@@H](O)[C@H](CO[C@@H]1O[C@@H](CO)[C@H](O)[C@H](O)[C@@H]1O)NC(=O)OCCCCCCCCCCCCCCCCCCCCCCC
  pKd: 7.94
